Measurements reported in PubChem BioAssay AID624134 (Broad Institute, 2012).
Values joined by “and” are separate entries in the source; they are usually repeats but may differ in a detail not shown here. Identical values can stand only once. Inconclusive results are not listed. Active and inactive are the calls of the source.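 Rule for the calls: active = signal drop with fitted half-maximal concentration no higher than twice the top valid tested concentration; inconclusive = flat curve with 30 to 70% signal loss, or poor fit; inactive = the rest, including signal rises and flat curves within 30%.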

System: HepG2 viability, CellTiter-Glo ATP luminescence, 48 h
Assay: loss of viability in HepG2 cells – cell-based, CellTiter-Glo, cherry-picked, cytotoxicity control for Shn3 inhibitor project, dose response (AID 624134)

Row | Compound | AC50
1 | CC(=O)OC[C@]12CCC(C)=C[C@H]1O[C@@H]1[C@H](O)[C@@H](OC(C)=O)[C@@]2(C)[C@]12CO2 | > 70 µM (inactive)
2 | C[C@H]1[C@@H](OS(=O)(=O)O)C[C@@H]2C[C@H]([C@@H](O)c3cc(=O)[nH]c(=O)[nH]3)NC3=NC[C@H]1N32 | 8.33 µM
3 | CC(=O)OC1C(=O)OCC23CCC4(C)OC4C2OC2CC(OC(=O)C=CC=CC(=O)OCCC1C)C3(C)C21CO1 (stereo not given) | > 70 µM (inactive)
4 | CC(=O)OCC12CC(OC(=O)CC(C)C)C(C)=CC1OC1C(O)C(OC(C)=O)C2(C)C12CO2 (stereo not given) | > 70 µM (inactive)
5 | CCN1CCN(Cc2ccc(NC(=O)c3cc(NC(=O)c4cc5cccc(OC)c5o4)cc(OC)c3)cc2C(F)(F)F)CC1 | 18.9 µM and 9.13 µM
